Data on ten compounds can be found in patent US11292801B2, “Calpain modulators and therapeutic uses thereof” (Blade Therapeutics, Inc., priority 2016, dated 2022).

Experiment [1] concerns the target T1, Human Calpain 1/NS1 (Homo sapiens, UniProt P07384).
T1 sequence (P07384 1-714): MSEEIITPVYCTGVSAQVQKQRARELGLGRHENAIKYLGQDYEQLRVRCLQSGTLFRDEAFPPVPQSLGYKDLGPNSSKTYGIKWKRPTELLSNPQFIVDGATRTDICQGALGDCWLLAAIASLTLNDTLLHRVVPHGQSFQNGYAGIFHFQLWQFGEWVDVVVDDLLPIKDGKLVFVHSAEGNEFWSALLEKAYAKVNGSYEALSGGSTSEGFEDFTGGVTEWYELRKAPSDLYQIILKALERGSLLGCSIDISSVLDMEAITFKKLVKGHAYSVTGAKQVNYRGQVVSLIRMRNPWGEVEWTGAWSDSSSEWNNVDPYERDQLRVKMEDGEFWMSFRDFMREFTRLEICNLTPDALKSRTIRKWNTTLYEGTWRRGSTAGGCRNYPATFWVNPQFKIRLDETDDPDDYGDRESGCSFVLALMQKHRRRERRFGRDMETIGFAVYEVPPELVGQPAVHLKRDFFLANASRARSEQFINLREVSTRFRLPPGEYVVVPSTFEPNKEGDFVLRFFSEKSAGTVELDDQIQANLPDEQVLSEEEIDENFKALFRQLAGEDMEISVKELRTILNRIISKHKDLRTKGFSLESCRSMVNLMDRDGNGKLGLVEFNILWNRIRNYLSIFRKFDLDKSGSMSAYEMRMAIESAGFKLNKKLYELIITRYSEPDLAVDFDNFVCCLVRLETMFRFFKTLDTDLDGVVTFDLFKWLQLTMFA
T1 sequence (P04632 1-268 partner): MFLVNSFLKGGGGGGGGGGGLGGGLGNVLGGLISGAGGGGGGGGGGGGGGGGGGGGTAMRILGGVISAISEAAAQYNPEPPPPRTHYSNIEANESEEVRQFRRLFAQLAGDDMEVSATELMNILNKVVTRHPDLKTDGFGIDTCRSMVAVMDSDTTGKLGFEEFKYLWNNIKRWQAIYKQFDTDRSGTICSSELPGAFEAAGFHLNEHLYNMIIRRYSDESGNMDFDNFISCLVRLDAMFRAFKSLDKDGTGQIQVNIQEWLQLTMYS
The experiment is described as follows: Biochemical inhibition of calpain 1, continuous fluorescence (FRET substrate) assay. The note with it: mean, read-out: Human Calpain 1/NS1 IC50 (nM)_MEAN. As for the experimental part:
(§1) Calpain 1, 2, and 9 activity and inhibition thereof are assessed by means of a continuous fluorescence assay. The SensoLyte 520 Calpain substrate (Anaspec Inc) is optimized for detecting calpain activity. This substrate contains a novel internally quenched 5-FAM/QXL™ 520 FRET pair. Calpains 1, 2, and 9 cleave the FRET substrate into two separate fragments resulting in an increase of 5-FAM fluorescence that is proportional to calpain activity.
(§2) Assays are typically setup in black 384-well plates using automated liquid handling as follows. Calpain assay base buffer typically contains 50 mM Tris, pH˜7.5, 100 mM NaCl and 1 mM DTT. Inhibitors are serially diluted in DMSO and used to setup 2× mixtures with calpains in the aforementioned buffer. After incubation at ambient temperature (25C), the reaction is initiated by adding a 2× mix of the fluorescent peptide substrate and CaCl2) (required for in-situ calpain activation) in the same buffer. Reaction progress curve data are typically collected for 10 min using excitation/emission wavelengths of 490 nm/520 nm on SpectraMax i3× or the FLIPR-Tetra plate readers (Molecular Devices Inc). Reaction rates were calculated from progress curve slopes typically over 1-5 min. Dose response curves (rate vs. log inhibitor concentration) were typically fit to a 4-parameter logistic function to extract IC50 values.

Experiment [2] deals with T2, Human Calpain 2/NS1 (Homo sapiens, UniProt P17655).
T2 sequence (P17655 1-700): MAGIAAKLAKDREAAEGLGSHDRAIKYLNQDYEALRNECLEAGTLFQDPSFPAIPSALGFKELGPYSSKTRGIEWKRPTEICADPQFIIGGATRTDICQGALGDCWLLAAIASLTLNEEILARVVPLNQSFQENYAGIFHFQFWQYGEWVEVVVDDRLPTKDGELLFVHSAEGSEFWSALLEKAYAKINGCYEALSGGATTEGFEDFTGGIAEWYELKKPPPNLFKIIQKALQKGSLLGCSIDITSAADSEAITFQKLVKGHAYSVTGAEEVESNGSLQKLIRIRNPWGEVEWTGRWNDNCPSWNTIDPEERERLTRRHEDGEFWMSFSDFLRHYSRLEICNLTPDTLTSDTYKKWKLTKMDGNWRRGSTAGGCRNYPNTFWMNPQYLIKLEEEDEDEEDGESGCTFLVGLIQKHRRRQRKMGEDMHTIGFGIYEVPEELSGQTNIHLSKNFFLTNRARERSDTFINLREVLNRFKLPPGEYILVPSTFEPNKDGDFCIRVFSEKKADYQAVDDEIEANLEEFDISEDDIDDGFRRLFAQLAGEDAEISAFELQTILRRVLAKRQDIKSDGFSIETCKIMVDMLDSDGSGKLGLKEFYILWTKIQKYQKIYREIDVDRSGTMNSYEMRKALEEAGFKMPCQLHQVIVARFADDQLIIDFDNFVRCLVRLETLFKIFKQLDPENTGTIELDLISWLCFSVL
T2 sequence (P04632 1-268 partner): T1 sequence (P04632 1-268 partner)
The experiment is described as follows: Biochemical inhibition of calpain 2, continuous fluorescence (FRET substrate) assay. To be noted: mean, read-out: Human Calpain 2/NS1 IC50 (nM)_MEAN. The procedure: as §1, §2

Experiment [3] has as its target T3, Human Calpain 9/NS1 (Homo sapiens, UniProt O14815).
T3 sequence (O14815 1-690): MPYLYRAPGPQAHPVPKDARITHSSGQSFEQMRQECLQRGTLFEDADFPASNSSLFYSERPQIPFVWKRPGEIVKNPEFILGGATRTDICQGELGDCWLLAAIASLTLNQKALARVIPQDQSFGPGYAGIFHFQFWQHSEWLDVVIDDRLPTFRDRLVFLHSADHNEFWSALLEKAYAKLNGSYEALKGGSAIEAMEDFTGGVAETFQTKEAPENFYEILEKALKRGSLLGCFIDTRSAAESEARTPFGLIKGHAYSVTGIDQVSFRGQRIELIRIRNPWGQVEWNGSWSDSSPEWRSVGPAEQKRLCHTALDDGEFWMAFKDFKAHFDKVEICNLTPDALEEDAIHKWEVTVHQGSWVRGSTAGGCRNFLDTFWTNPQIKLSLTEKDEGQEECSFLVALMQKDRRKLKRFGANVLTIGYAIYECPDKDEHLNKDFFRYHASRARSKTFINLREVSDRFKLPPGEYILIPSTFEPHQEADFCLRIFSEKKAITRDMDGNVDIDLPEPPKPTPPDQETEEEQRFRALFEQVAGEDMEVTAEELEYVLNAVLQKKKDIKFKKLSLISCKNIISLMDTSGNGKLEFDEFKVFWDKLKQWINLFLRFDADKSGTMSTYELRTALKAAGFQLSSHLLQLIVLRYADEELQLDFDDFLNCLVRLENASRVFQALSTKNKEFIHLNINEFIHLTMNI
T3 sequence (P04632 1-268 partner): T1 sequence (P04632 1-268 partner)
The experiment is described as follows: Biochemical inhibition of calpain 9, continuous fluorescence (FRET substrate) assay. The note with it: mean, read-out: Human Calpain 9/NS1 IC50 (nM)_MEAN. The procedure:
as §1, §2

As for `O=C(NCCc1ccc(Cl)cc1)C(=O)[C@@H]1C/C=C/COCCOCc2ccccc2C(=O)N1` [Compound 78, (S,E)-N-(4-chlorophenethyl)-2-oxo-2-(12-oxo-1,3,4,6,9,10,11,12-octahydrobenzo[f][1,4]dioxa[9]azacyclotetradecin-10-yl)acetamide], the figures for the IC50 in experiment [1], in experiment [2] and in experiment [3] were 3000 to 10000 nM, 3000 to 10000 nM and less than 3000 nM, respectively.
For `O=C1NC(C(=O)C(=O)N2CCOCC2)CCCCOCCOCc2ccccc21` (stereo not drawn) [Compound 115, 1-Morpholino-2-(12-oxo-1,3,4,6,7,8,9,10,11,12-decahydrobenzo[f][1,4]dioxa[9]azacyclotetradecin-10-yl)ethane-1,2-dione], the IC50 in experiment [1], in experiment [2] and in experiment [3] was more than 10000 nM throughout.
Take `CON(C)C(=O)[C@@H]1C/C=C/CCOc2ccnc(n2)-c2ccccc2C(=O)N1` [Compound 135, (S,E)-N-methoxy-N-methyl-3-oxo-11-oxa-4-aza-1(2,4)-pyrimidina-2(1,2)-benzenacycloundecaphan-7-ene-5-carboxamide]: the IC50 in experiment [1], in experiment [2] and in experiment [3] was more than 10000 nM in each case.
As for `O=C(NCc1ccccn1)C(=O)C1CCCCOCCOCc2ccccc2C(=O)N1` (stereo not drawn) [Compound 94, 2-Oxo-2-(12-oxo-1,3,4,6,7,8,9,10,11,12-decahydrobenzo[f][1,4]dioxa[9]aza-cyclotetradecin-10-yl)-N-(pyridin-2-ylmethyl)acetamide], the figures for the IC50 in experiment [1], in experiment [2] and in experiment [3] were more than 10000 nM, more than 10000 nM and less than 3000 nM, respectively.
Regarding `O=C[C@@H]1CCCCCCCCc2ccccc2C(=O)N1` [Compound 15, (S)-1-Oxo-2,3,4,5,6,7,8,9,10,11-decahydro-1h-benzo[c][1]aza-cyclotridecine-3-carbaldehyde], the IC50 in experiment [1] is 3000 to 10000 nM; in experiment [2], less than 3000 nM; in experiment [3], less than 3000 nM.
On to `CCNC(=O)C(=O)[C@@H]1CC=CCCCCCc2ccccc2C(=O)N1` [Compound 26, (S)—N-ethyl-2-oxo-2-(1-oxo-2,3,4,7,8,9,10,11-octahydro-1h-benzo[c][1]azacyclotridecin-3-yl)acetamide], for which the IC50 was more than 10000 nM in experiment [1], more than 10000 nM in experiment [2] and 3000 to 10000 nM in experiment [3].
For the compound `O=C(NC1CC1)C(=O)C1CCCCOCCOCc2ccccc2C(=O)N1` (stereo not drawn) [Compound 114, N-cyclopropyl-2-oxo-2-(12-oxo-1,3,4,6,7,8,9,10,11,12-decahydrobenzo[f][1,4]dioxa[9]azacyclotetradecin-10-yl)acetamide], the IC50 in experiment [1], in experiment [2] and in experiment [3] was more than 10000 nM in each case.
With `O=C[C@@H]1CC=CCCCCCc2ncccc2C(=O)N1` [Compound 50, (S)-5-Oxo-6,7,8,11,12,13,14,15-octahydro-5h-pyrido[3,2-c][1]aza-cyclotridecine-7-carbaldehyde], the IC50 in experiment [1] is more than 10000 nM; in experiment [2], 3000 to 10000 nM; in experiment [3], less than 3000 nM.
The like results for `C/C1=C\C[C@@H](C(=O)C(N)=O)NC(=O)c2cc(C)nn2-c2cccc(c2)OCC1` [Compound 145, (S,E)-2-(1^3,6-dimethyl-11-oxo-1H-3-oxa-10-aza-1(1,5)-pyrazola-2(1,3)-benzenacycloundecaphan-6-en-9-yl)-2-oxoacetamide] were, in that order, less than 3000 nM, less than 3000 nM and less than 3000 nM.
With `O=C(NCc1ccc(OC(F)(F)F)cc1)C(=O)C1CCCCOCCOCc2ccccc2C(=O)N1` (stereo not drawn) [Compound 87, 2-Oxo-2-(12-oxo-1,3,4,6,7,8,9,10,11,12-decahydrobenzo[f][1,4]dioxa[9]aza-cyclotetradecin-10-yl)-N-(4-(trifluoromethoxy)benzyl)acetamide], the results for the IC50 in experiment [1], in experiment [2] and in experiment [3] were more than 10000 nM, more than 10000 nM and less than 3000 nM, respectively.
